Experimental findings from patent publication US20170166979A1, “PERSONALIZED TREATMENT OF CANCER USING FGFR INHIBITORS” (priority 2014, published 2017) are described below.

For orientation: GI50 means the concentration giving 50% growth inhibition. The low end stands for greater sensitivity of the cells, the high end for lower sensitivity of the cells.

Entries after “also recorded” stand apart in the source; their conditions may differ.

Test [1] deals with FGFR-dependent cell lines. Kind of test: Mitochondrial apoptosis mediators upon FGFR inhibition. Type of test: cell-based. The settings on record: 1 μmol/L, after 72 hours.
In test [2] the test system is NIH3T3 cells expressing FGFR1 alone. The experiment in a line: Induction of apoptosis (Annexin-V/PI, flow cytometry). Type of test: cell-based. The settings on record: 1 μmol/L, 72-hour FGFR inhibition. The source says:
(§1) FIG. 3. Induction of apoptosis (Annexin-V/PI, flow cytometry) in NIH3T3 cells, (co-) transduced with FGFR1β+/−MYC, by 72-hour FGFR inhibition (PD173074, 1 μmol/L). FGFR-dependent H1581 cells (PD173074, 1 μmol/L) as well as ALK-dependent NIH3T3-EML4-ALK
(§2) cells (TAE684, 1 μmol/L) were used as positive controls.
In general terms: In flow cytometry, cells or beads pass a laser one at a time.

Test [3] concerns FGFR1-MYC cotransduced NIH3T3 cells. The test is described as above. In kind it is cell-based. The settings on record: 1 μmol/L, 72-hour FGFR inhibition.
Description: as §1, §2

Test [4] has as its system FGFR-dependent H1581 cells. The description is as above. Type of test: cell-based. The settings on record: 1 μmol/L, 72-hour.
Description: as §1
cells (TAE684, 1 μmol/L) were used as positive controls. Resistant HCC15 and NIH3T3-e.V. cells served as negative controls. *, Significant induction of apoptosis.

Test [5] deals with FGFR1-amplified HCC95 and H520 cells and NRAS-mutant HCC15 cells. The experiment in a line: Immunoblotting of MYC and cyclin D1 expression upon FGFR inhibition. In kind it is cell-based. The settings on record: 1 μmol/L, 24 hours. The method, then: (§3) FIG. 6. FGFR1-amplified H1581, DMS114, and HCC95 cells as well as HCC15 (NRAS mut) controls were treated with PD173074 (1 μmol/L, 24 hours). Expression levels of MYC, cyclin D1, and actin as well as ERK phosphorylation were monitored by immunoblotting. Con.: positive control NIH3T3-FGFR1β cells.
On the technique in general: Immunoblotting shows a protein as a band on a membrane.

Test [6] concerns FGFR-dependent cell lines H1581 and DMS114. The description is as above. Conditions: 1 μmol/L, within 24 hours. In kind it is cell-based. The method, then: as §3
Test [7] relates to FGFR-dependent cancer cell lines (H1581, DMS114, and HCC1599). Kind of test: FGFR dependency of cancer cell lines (cellular ATP content after 96 hours). Type of test: cell-based. Conditions: FGFR-dependent group: H1581, DMS114, HCC1599. The method, then:
(§4) FIG. 7. Protein expression of MYC was silenced by stable lentiviral transduction of FGFR dependent H1581 cells as well as HCC15, H2882, and HCC95 controls. Knockdown efficiency was validated by immunoblotting for H1581, H2882, and HCC15 cells (top). FGFR dependency was determined by measuring cellular ATP content after 96 hours (bottom).
(§5) FIG. 9. Segregation of FGFR1 amplification with RNA expression levels of MYC Cancer cell lines were divided into an FGFR-dependent (H1581, DMS114, and HCC1599) GI 50<500 nmol/L, PD173074) versus resistant group (A427, H520, H1703, HCC15, H358, HCC95, H187, SW1271, H526, and DMS153 cells). Expression levels were compared by the Student t test. wt, wild-type.

The subject of test [8] is resistant group (A427, H520, H1703, HCC15, H358, HCC95, H187, SW1271, H526, and DMS153 cells). The test is described as above. In kind it is cell-based. The method, then: as §4, §5
The test system of test [9] is NIH3T3 cells expressing either of the mesenchymal FGFR1 splice variants. Kind of test: Xenograft mouse model, tumor volume. In kind it is in vivo, nude mice. The settings on record: 15 mg/kg, q.d. As to the method:
(§6) FIG. 4. Nude mice, engrafted with retrovirally transduced NIH3T3 cells, received BGJ398 (15 mg/kg, q.d., lower curve) or 5% glucose (upper curve), respectively, upon formation of palpable tumors. Volumes of tumors formed by NIH3T3-FGFR1f3 cells (top) and NIH3T3-FGFR1β-MYC cells (bottom) were assessed every second day and compared by the t test. Error bars display SD of three independent experiments.
(§7) All animal procedures were approved by the local animal protection committee and the local authorities. Transduced NIH3T3 and tumor cells were resuspended in RPMI or DMEM medium and injected (5×10^6 cells per tumor) subcutaneously into the flanks of 8- to 15-week-old male nude mice [Rj:NMRI-nu (nu/nu), Janvier Europe] under 2.5% isoflurane anesthesia.
(§8) To assess the effect of FGFR1 inhibitors in vivo, NVP-BGJ 398 (Novartis) was dissolved in a vehicle solution (33% PEG300, 5% glucose) for xenograft application. Tumor size was monitored every second day by measurement of perpendicular diameters by an external caliper and calculated by use of the modified ellipsoid formula [V=½ (Length×Width 2)]. Oral therapy was started when tumors reached a volume of 100 mm 3. Mice received daily either
(§9) BGJ398 (15 mg/kg) or vehicle solution. After 14 (NIH3T3 FGFR1(3 +MYC), 16 (NIH3T3 EML4-ALK, KRAS G12V), or 25 (NIH3T3 e.V., FGFR1α/β) days of therapy, respectively, mice were sacrificed by intraperitoneal injection of ketamine/xylazine (300/60 mg/kg).

For test [10], the system named is NIH3T3-FGFR1β-MYC cells. Kind of test: Xenograft mouse model, tumor volume. In kind it is in vivo, nude mice. Conditions: 15 mg/kg, q.d., tumors coexpressing FGFR1 and MYC; P<0.001. As to the method: as §6, §7, §8, §9
Test [11] deals with stage IV squamous cell lung cancer with FGFR1 amplification and MYC score of 3. The experiment in a line: Patient treated with BGJ398 in first-in-humans trial (CT, RECIST 1.1). Type of test: in vivo, human. Conditions: 100 mg. The source says:
FIG. 11. […] The sample was scored (degrees 0-3) by FGFR1 dual-color FISH (top, normalized copy-number ratio) as well as MYC IHC (bottom, nuclear staining intensity).
FIG. 13. Fused scans of positron emission tomography (PET) and computer tomography (CT) before (top left, baseline) and after the beginning of BGJ389 therapy (top right, 4 weeks). […] Target lesions for evaluation of tumor response are highlighted by red arrows. IHC, immunohistochemistry.
We identified a person with a 70-packper-year smoking history. […] The patient agreed to treatment with BGJ398, a highly specific FGFR1 inhibitor, which was being evaluated in a first-in-humans trial at our center. After cardiac assessment and baseline thoracic computed tomography (CT), treatment with 100 mg BGJ398 was started.

`CCN(CC)CCCCNc1ncc2cc(-c3cc(OC)cc(OC)c3)c(NC(=O)NC(C)(C)C)nc2n1` [PD173074]: the “Cytochrome C release” value in test [1] is reported as “occurred robustly”. In [1], the “Loss of the mitochondrial membrane potential” value is “occurred robustly”. Also, the Induction of apoptosis entry in test [2] was “but not in cells expressing FGFR1 alone”; in [3], “induced apoptosis”; in [4], “induced apoptosis”. Also, in test [5], the “Expression levels (MYC, cyclin D1)” value was “remained relatively stable”. In [6], the “Levels of MYC” value is listed as “decreased”. In addition, in [6], the “Levels of cyclin D1” value is on record as “decreased”. This molecule registered a 50% growth inhibitory concentration (GI50) in [7] of under 500 nM. Further, the FGFR dependency group entry in [8] is on record as “resistant”.
With `CCN1CCN(c2ccc(Nc3cc(N(C)C(=O)Nc4c(Cl)c(OC)cc(OC)c4Cl)ncn3)cc2)CC1` [BGJ398], in [9] (oral, nude mice), the Tumor growth result was “repressed tumor growth”. Besides, in test [9] (tumors expressing FGFR1 alone), the Tumor shrinkage entry is on record as “did not induce tumor shrinkage”. Besides, the Tumor regression entry in test [10] was “led to regressions”. For the same molecule, in [11], the “Duration of therapy until progressive disease (kidney, RECIST1.1)” value is recorded as 10 months and the Symptoms entry was “improvement of symptoms”. In [11] (CT scans after 4 and 8 weeks), the “Response according to RECIST 1.1 criteria” value is “partial response (PR)” and the “Tumor response on CT” value is recorded as “tumor regression; also recorded: regression without cavitation of the tumor”.
